According to patent US20250269018A1, “COMBINED CANCER THERAPY WITH AN EPITHELIAL CELL ADHESION MOLECULE (EPCAM) INHIBITOR AND A HEPATOCYTE GROWTH FACTOR RECEPTOR (HGFR) INHIBITOR” (ACADEMIA SINICA, priority 2021, published 2025):
“Also recorded” adds a separate entry of the source.

B1: EpAb2-6: anti-EpCAM neutralizing monoclonal antibody targeting EpEX; VH SEQ ID NO: 15, VL SEQ ID NO: 16 (antibody, listed as Homo sapiens, V domains shown)
VH: VKLQESGPELKKPGETVKISCKASGYTFTDYSMHWVKQAPGKGLKWMGWINTETGEPTYADDFKGRFAFSLETSASTAYLQINNLKNEDTATYFCARTAVYWGQGTTVTVSS
VL: DIQMTQSPSSLSASLGERVSLTCRASQEISVSLSWLQQEPDGTIKRLIYATSTLDSGVPKRFSGSRSGSDYSLTISSLESEDFVDYYCLQYASYPWTFGGGTKLEIKRADAAPTVS

Tested on: HCT116 cells
Assay: Transwell migration/invasion and wound healing assay, HCT116
Type: cell-based, human
Details: for EpEX-induced invasion: 50 nM EpEX, LY 25 μM, U0 20 μM, PF 10 μM, Transwell with matrigel, FIG. 4K; for EpEX-induced migration and invasion: HCT116 cells, discussion statement
Description: FIGS. 3A to 3H. EpEX induces the activation of ERK and FAK-AKT signaling pathway. Wild type (WT) or EpCAM knockout (KO) HCT116 cells after EpEX-His treatment. (FIG. 3A) The levels of phosphorylated HGFR, AKT, FAK, GSK3β, ERK, ADAM17, and presenilin 2 were assayed by Western blotting. (FIG. 3B) Colony formation was examined by crystal violet staining. (FIG. 3C) HCT116 cells were treated with TAPI (ADAM17 inhibitor) or DAPT (γ-secretase inhibitor) for 24 hours, and the phosphorylation of HGFR, AKT, and ERK was analyzed by Western blotting, and EpEX protein level in culture medium was examined by immunoprecipitation and Western blotting. (FIG. 3D) HCT116 and HT29 cells were starved for 16 h, then treated with EpEX-His (50 nM) and HGF (0.5 nM) for 15 min. The levels of phosphorylated HGFR, AKT, and ERK were examined by Western blotting. (FIG. 3E) HCT116 cells were starved for 16 h, then treated with 50 nM EpEX-His for 15 min. HGFR inhibitor SU11274 (SU, 10 μM), AKT inhibitor LY294002 (LY, 25 μM), ERK inhibitor U0126 (U0, 20 μM), or FAK inhibitor PF-562271 (PF, 10 μM) were applied 1 h before EpEX treatment. Phosphorylation of AKT, ERK, and FAK was examined by Western blotting. (FIG. 3F) HCT116 cells were starved for 16 h, then treated with 50 nM EpEX, and SU (10 μM), LY (25 μM), U0 (20 μM) or PF (10 μM). Colony formation was examined by crystal violet staining after treatment for 7 days. The relative colony densities are shown. Migration ability was examined by the (FIG. 3G) wound healing assay at the indicated times. (FIG. 3H) The numbers of migration cell was assessed by a Transwell after treatment for 24 h.
FIGS. 4A to 4L. EpEX induces EMT and invasion by stabilizing β-catenin and Snail through decreasing GSK3β activity. (FIG. 4A) The protein expression of EMT markers and regulators was detected by Western blotting in Wild-type (WT) or EpCAM knockout (KO) HCT116 cells after EpEX treatment. (FIG. 4B) Cell invasion was examined by Transwell chamber assay with matrigel. (FIG. 4C) WT or KO HCT116 and HT29 cells were starved for 16 h, then treated with 0.5 nM of HGF with 2% FBS for 24 h. EMT-related protein expression (E-cadherin, vimentin, and Snail) was examined by Western blotting. (FIG. 4D) WT or KO HCT116 and HT29 cells were treated with HGF (0.5 nM) for 24 h. Invasion by HCT116 and HT29 cells was examined by Transwell chamber assay with matrigel. (FIG. 4E) HCT116 and HT29 cells were starved for 16 h, then treated with 0.5 nM of HGF with 2% FBS for 24 h. EMT-related protein expression (E-cadherin, Vimentin, and Snail) was examined by Western blotting. (FIG. 4F) HCT116 and HT29 cells were starved for 16 h, then treated with 0.5 nM of HGF with 2% FBS for 24 h. Cell invasion was assessed by a Transwell assay with matrigel. (FIG. 4G) HCT116 cells after shLuc and shHGFR treatment were treated with 50 nM of EpEX-His. HCT116 cells after shLuc and shHGFR treatment were treated with 50 nM of EpEX-His with 2% FBS for 24 h. EMT-related protein expression (E-cadherin, Vimentin, and Snail) was examined by Western blotting. (FIG. 4H) Cell invasion was examined by Transwell chamber assay with matrigel. (FIG. 4I) Starved HCT116 cells were treated SU (10 μM) for 1 h, followed by treatment with EpEX-His (50 nM) for 24 h. Phosphorylated GSK3β, active-β-catenin, and Snail were detected by Western blotting. (FIG. 4J) HCT116 cells were starved for 16 h, then treated with 50 nM EpEX-His for 24 min. AKT inhibitor LY294002 (25 μM), ERK inhibitor U0126 (20 μM), or PF-562271 (10 μM) were applied 1 h before EpEX treatment. Protein expression of phosphorylated GSK3β and Snail was examined by Western blotting. (FIG. 4K) HCT116 cells were starved for 16 h, then treated with 50 nM EpEX, and SU (10 μM), LY (25 μM), UO (20 μM) or PF (10 μM). Cell invasion was examined by Transwell chamber assay with matrigel. (FIG. 4L) Protein expression was analyzed by Western blotting in EpEX-His (50 nM) treated HCT116 cells after treatment with or without 2 μM GSK3β inhibitor (BIO) for 24 h. […]

Row | Molecule | EpEX-induced invasion (HCT116) | EpEX-induced migration and invasion | invasion and migration activities of HCT116 cells (EpAb2-6 10 μg/ml, wound healing, Transwell with matrigel 24 h) | effects of EpAb2-6 on invasion and migration when treated with HGF after EpAb2-6 (HCT116, EpAb2-6 10 μg/ml and HGF 0.5 nM, FIGS. 6C and 6D)
1 | CN(c1ncccc1CNc1nc(Nc2ccc3c(c2)CC(=O)N3)ncc1C(F)(F)F)S(C)(=O)=O [PF-562271] | suppressed | attenuate EpEX-induced migration and invasion | – | –
2 | Cc1[nH]c(C=C2C(=O)Nc3ccc(S(=O)(=O)N(C)c4cccc(Cl)c4)cc32)c(C)c1C(=O)N1CCN(C)CC1 (stereo in doubt) [SU11274, (3Z)-N-(3-Chlorophenyl)-3-({3,5-dimethyl-4-[(4-methylpiperazin-1-yl)carbonyl]-1H-pyrrol-2-yl}methylene)-N-methyl-2-oxo-2,3-dihydro-1H-indole-5-sulfonamide] | – | attenuate EpEX-induced migration and invasion | – | –
3 | N#CC(=C(/N)Sc1ccccc1N)/C(C#N)=C(\N)Sc1ccccc1N [U0126] | suppressed | attenuate EpEX-induced migration and invasion | – | –
4 | B1 | – | – | significantly reduced; also recorded: attenuate the invasion and migration capacity of HCT116 cells | partially blunted
